Patent publication US20240307349A1, “METHODS FOR THE PREPARATION AND DOSE REGIMENS FOR USE OF SSTR4 AGONISTS AND SALTS THEREOF” (priority 2023, published 2024)
Where two headings read alike, the source gives them in different places.

Experiments:
Type in all cases: in vivo, human
[1] = system: patients; assay: Pooled safety analysis of Phase 2 studies OA03, BP03 and NP03; settings: 200 mg to 600 mg
Description: For each of these studies, further analyses were performed to identify TEAEs related to CV, thyroid, and abnormal renal function. CV AEs were identified using prespecified standardized MedDRA queries/preferred terms (SMQs/PTs) for cardiac arrhythmia, hypotension, major adverse cardiovascular event, and congestive heart failure. Thyroid-related AEs were identified with the ‘Hypothyroidism’ (SMQ), and AEs associated with abnormal renal function were identified with the high-level terms (HLTs) renal failure and impairment and select PTs.
Safety data from the 3 pooled intervention-specific appendix (ISAs), OA03, BP03, and NP03 were analyzed for the following safety topics of interest.
Thus, after the treatment of a total 282 patients that were administered from 200 mg to 600 mg of Example 5 in the 3 phase 2 studies, an adequate safety profile was established. While the safety of the 3 phase 2 studies were discussed together, the efficacy results for each study will be discussed herein.

[2] = system: healthy subjects; assay: Phase 1 study LXBB (SAD/MAD), safety and tolerability in healthy subjects
Description: The safety and tolerability of Example 5, were initially based on the 2 completed Phase 1 studies (LXBB and LXBA) and later confirmed with 3 completed Phase 2 studies (OA03, BP03, and NP03, as disclosed below).
Phase 1 Study LXBB was a first-in-human single-ascending dose/multiple-ascending dose (SAD/MAD) study in 89 healthy subjects (TABLE 1). […] One subject was discontinued due to the nondrug-related AE of pyrexia. In the SAD study, 1 subject each reported AEs of temporomandibular joint syndrome and tension headache. In the food effect study, 1 subject reported dry eye and nausea. In the Younger Group 10-day multiple-dose exposure study, the most commonly reported AEs were headache (2 subjects), diarrhea (2 subjects), nausea, rhinitis, and orthostatic hypotension (1 subject each). In the Elderly Group 10-day multiple-dose exposure study, the most commonly reported AEs were headache (5 subjects), pain in extremity (1 subject), vessel puncture site bruise (1 subject), dizziness (1 subject), and orthostatic hypotension (1 subject).
The mean PR interval increase from baseline was 13 msec in subjects receiving single 400-mg dose (SAD); the highest PR interval change from baseline in an individual subject was 45 msec (after the 300-mg dose in MAD).

[3] = Phase 1 study LXBA, multiple-dose steady-state plasma PK in healthy subjects; settings: for RA (accumulation ratio based on AUC(0-τ)) / AUC: tau = 12 hours; for Cmax / AUC(0-t) / AUC: human, in vivo, steady state; for Cmax: n = 6, geometric mean; for AUC(0-t): = 2 × AUC(0-τ), read-out: AUC(0-24); for AUC: geometric mean, read-out: AUC(0-τ)
Description: The multiple-dose PK of Example 5 were evaluated at doses of 200 mg, 400 mg, and 600 mg, twice daily. The median time to tmax ranged from 1 to 3 hours post dose.
Study LXBA is a completed study and consisted of 2 parts, Part A and Part B (TABLE 1). Part A of the study had 18 healthy subjects in 3 dosing cohorts, and Part B had 9 healthy subjects exposed to Example 5. […] In Part A, all treatment-emergent adverse events (TEAEs) were mild in severity except for 1 moderate event of presyncope. Constipation and insomnia (2 events each) were the only TEAEs reported in >1 subject. In Part B, the reported TEAEs were dysgeusia, nausea, and vomiting, which were all mild in severity.

[4] = system: participants with OA in the knee; assay: H0P-MC-OA03 Phase 2 placebo-controlled trial, osteoarthritis pain
Description: The purpose of this study was to test whether Example 5 is efficacious in relieving osteoarthritis (OA) pain in the knee. Data was also collected to assess the safety and tolerability of Example 5 in this study population and previously discussed. Pharmacokinetic properties and pharmacodynamic effects were also be explored. The totality of data from this proof-of-concept study assessed the benefits and risks associated with Example 5.
OA03 was an 8-week, Phase 2, randomized, double-blind, placebo-controlled study that compared Example 5 versus placebo in participants with OA in the knee.
The primary clinical question of interest was “What is the treatment difference between Example 5 and placebo assessed using mean change from baseline to endpoint (Week 8) for average pain intensity (API) as measured using the numeric rating scale (NRS) in participants with OA of the knee regardless of initiation of rescue medication or other allowed concomitant medication and assuming that they would have continued initially randomized treatment condition?”
The key secondary clinical question of interest was: “What is the treatment difference between Example 5 and placebo assessed using mean change from baseline to endpoint (Week 8) for pain as measured by the WOMAC® (Western Ontario and McMaster Universities Arthritis Index) pain subscale in participants with OA of the knee regardless of initiation of rescue medication or other allowed concomitant medication and assuming that they would have continued initially randomized treatment condition?”
Participants were randomly assigned in the ratio of 2:1 to Example 5 or placebo. Based on tolerability, participants could take up to a maximum of 3 capsules orally (each capsule was 200 mg), twice daily (BID), approximately every 12 hours, for a total dose of 600 mg.
The protocol was amended to include a titration to the target dose of 600 mg. Investigators could reduce the dose from 600 to 400 mg after discussion with the participant due to tolerability as long as the change occurred before the end of Visit 4, that is, study Week 2. The medical monitor was contacted as needed.

Cc1cccnc1OCC(C)(C)NC(=O)[C@H]1[C@@H]2CNC[C@@H]21.O=C(O)C(O)C(O)C(=O)O [Example 5, (1R,5S,6r)-N-(2-Methyl-1-((3-methylpyridin-2-yl)oxy)propan-2-yl)-3-azabicyclo[3.1.0]hexane-6-carboxamide L-tartrate sesquihydrate]
differences in thyroid-related TEAEs or thyroid analytes versus placebo [1]: no clinically meaningful differences
deaths or serious adverse events (SAEs) ([2]; SAD and MAD study): No deaths or serious adverse events (SAEs) were reported
severity of adverse events (AEs) ([2]; SAD and MAD study): mild or moderate in severity
tolerability ([2]; SAD and MAD study, 89 healthy subjects): well tolerated
highest PR interval change from baseline in an individual subject ([2]; after the 300-mg dose in MAD): 45 ms
changes in chemistry, hematology, or coagulation parameters ([2]; human, in vivo): no clinically significant changes
mean PR interval increase from baseline ([2]; single 400-mg dose (SAD)): 13 ms
RA (accumulation ratio based on AUC(0-τ)) ([3]; 200 mg BID): 1.49
RA (accumulation ratio based on AUC(0-τ)) ([3]; 400 mg BID): 1.81
RA (accumulation ratio based on AUC(0-τ)) ([3]; 600 mg BID): 1.64
Cmax ([3]; 200 mg BID (400 mg)): 1620 ng/mL
AUC(0-t) ([3]; 200 mg BID): 23000 ng·h/mL
AUC ([3]; 200 mg BID): 11500 ng·h/mL
Cmax ([3]; 400 mg BID (800 mg)): 3240 ng/mL
AUC(0-t) ([3]; 400 mg BID): 51000 ng·h/mL
AUC ([3]; 400 mg BID): 25800 ng·h/mL
Cmax ([3]; 600 mg BID (1200 mg)): 5210 ng/mL
AUC(0-t) ([3]; 600 mg BID): 77400 ng·h/mL
AUC ([3]; 600 mg BID): 38700 ng·h/mL
steady-state Cmax and AUC0-24 inter-subject coefficient of variations ([3]; multiple dose, 200 mg, 400 mg and 600 mg twice daily): < 25%
Mean change from baseline assessment to endpoint for API as measured using the NRS ([4]; 8 weeks after initial treatment administration, up to 600 mg Q12H, n = 135): −1.7
key secondary objective: efficacy versus placebo, WOMAC pain subscale ([4]; Week 8): did not meet the prespecified threshold
primary objective: efficacy versus placebo, API by weekly average of NRS ([4]; Week 8, osteoarthritic pain): did not meet the prespecified threshold
mean change in pain intensity from baseline assessment to Week 8 using the WOMAC pain subscale ([4]; Week 8, up to 600 mg Q12H, n = 135): −2.6
